Data set [1] can be described thus: Drug level in rat hepatocytes treated with 9-(trans-4-Hydroxycyclohexyl)-2-[(4-methoxy-2-methylphenyl)amino]-7-methyl-7,9-dihydro-8H-purin-8-one assessed as compound formation at 5 uM measured after 60 mins by UV-MS analysis. The following applies: 1 h. The class given is ADME, cell-based, Hepatocyte.
A short description of data set [2]: Drug level in mouse hepatocytes treated with 9-(trans-4-Hydroxycyclohexyl)-2-[(4-methoxy-2-methylphenyl)amino]-7-methyl-7,9-dihydro-8H-purin-8-one assessed as compound formation at 5 uM measured after 60 mins by UV-MS analysis. The following applies: 1 h. Type of data set: ADME, cell-based, Hepatocyte.
Data set [3] can be described thus: physchem. The settings on record: buffer, pH 7.4.
The nature of data set [4]: Apparent permeability across apical to basolateral side in human Caco2 cells in absence of efflux inhibitor by ABBA assay. Type of data set: ADME, cell-based. The settings on record: Caco-2. A general note: Passage across Caco-2 layers is used to estimate intestinal permeability.
Data set [5] can be described thus: Intrinsic clearance in human microsomes. Type of data set: ADME, Microsome.
A short description of data set [6]: Dissociation constant, pKa of the compound. Type of data set: physicochemical.
Data set [7] can be described thus: Drug metabolism in human hepatocytes assessed as dealkylation at 5 uM measured after 60 mins by UV-MS analysis. The class given is ADME, cell-based, Hepatocyte. The following applies: 1 h.
Data set [8] in a line: Drug metabolism in mouse hepatocytes assessed as dealkylation at 5 uM measured after 60 mins by UV-MS analysis. Type of data set: ADME, cell-based, Hepatocyte. The following applies: 1 h.
Data set [9] in a line: Drug metabolism in rat hepatocytes assessed as dealkylation and oxidation by measuring iminoquinone formation at 5 uM measured after 60 mins by UV-MS analysis. Type of data set: ADME, cell-based, Hepatocyte. The settings on record: 1 h.
A short description of data set [10]: Drug metabolism in mouse hepatocytes assessed as dealkylation and oxidation by measuring iminoquinone formation at 5 uM measured after 60 mins by UV-MS analysis. Type of data set: ADME, cell-based, Hepatocyte. The following applies: 1 h.
A short description of data set [11]: Drug metabolism in rat hepatocytes assessed as dealkylation at 5 uM measured after 60 mins by UV-MS analysis. The class given is ADME, cell-based, Hepatocyte. The following applies: 1 h.
Data set [12] in a line: Volume of distribution at steady state in Han Wistar rat at 2 mg/kg, iv or 5 mg/kg, po. Type of data set: ADME, organism-based. The following applies: in vivo, read-out: Vdss.
Data set [13] can be described thus: Oral bioavailability in Beagle dog at 2 mg/kg. The class given is ADME, organism-based, Canis lupus familiaris. The settings on record: in vivo.
Data set [14] is described as follows: Time at which plasma concentration stays above in vitro IC50 for inhibition of DNA-PK in human A549 cells in SCID mouse at 100 mg/kg, po qd. The following applies: in vivo. The class given is organism-based.
Data set [15] in a line: Cmax in ATM knock out human FADU cells xenografted SCID mouse at 100 mg/kg, po qd measured after 2 hrs. The class given is ADME, organism-based. The settings on record: in vivo, read-out: T>IC50. In general terms: In xenograft studies the graft and the host belong to different species.
Data set [16] can be described thus: Solubility of the compound in fasted state simulated intestinal fluid using crystalline sample. Type of data set: physicochemical.
A short description of data set [17]: Volume of distribution at steady state in Beagle dog at 1 mg/kg, iv or 2 mg/kg, po. Type of data set: ADME, organism-based, Canis lupus familiaris. The following applies: in vivo, read-out: Vdss.
Data set [18] is described as follows: Free plasma concentration in SCID mouse at 100 mg/kg, po qd measured after 10 hrs. Type of data set: ADME, organism-based. The settings on record: in vivo.
Data set [19] in a line: Oral bioavailability in Han Wistar rat at 5 mg/kg. Type of data set: ADME, organism-based. The settings on record: in vivo.
The nature of data set [20]: Solubility of the compound in simulated gastric fluid using crystalline sample. Type of data set: physicochemical.

We go through 21 compounds from ChEMBL document CHEMBL4402552, “The Discovery of 7-Methyl-2-[(7-methyl[1,2,4]triazolo[1,5-a]pyridin-6-yl)amino]-9-(tetrahydro-2H-pyran-4-yl)-7,9-dihydro-8H-purin-8-one (AZD7648), a Potent and Selective DNA-Dependent Protein Kinase (DNA-PK) Inhibitor” (J Med Chem, 2020).

The structures appear in SMILES notation. In brackets after ≈: the same amount, converted by molar mass.

For `NC1=C(C(=O)c2ccccc2)/C(=N/c2ccccc2C(=O)c2ccccc2)C=CC1=O`, the Drug uptake entry in [1] and in [2] was “Metabolite_Detected” in each case.

In general, logD refers to lipophilicity at a set pH, counting ionised and neutral species. `COc1ccc(Nc2ncc3c(n2)n(C2CCCCC2)c(=O)n3C)c(C)c1` displayed a logD in [3] of 4.1.

As a reminder, the Papp A→B is the apparent permeability from the apical to the basolateral side of a cell layer. Take `Cc1cc2ncnn2cc1Nc1ncc2c(n1)n([C@H]1CC[C@H](O)CC1)c(=O)n2C`: the Papp A→B in data set [4] was found to be 0.4 ×10⁻⁶ cm/s. This compound also yielded a logD in data set [3] of 1.3.

Compound `Cc1ccccc1Nc1ncc2c(n1)n([C@H]1CC[C@H](O)CC1)c(=O)n2C` came in with a logD in [3] of 2.5.

A word on the microsomal CLint: it is the rate of metabolic loss divided by the concentration. Higher therefore signals rapid turnover. Regarding `Cc1cc2ncnn2cc1Nc1ncc2c(n1)n(C1CCC(F)(F)CC1)c(=O)n2C`, in [4], the Papp A→B was 23 ×10⁻⁶ cm/s. Moreover, the microsomal CLint in [5] was 68 µL/min/mg. Also, in data set [3], the logD was found to be 2.

`COc1ccc(Nc2ncc3c(n2)n(-c2ccccc2)c(=O)n3C)c(C)c1` had a logD in [3] of 2.8.

For `Cn1c(=O)n([C@H]2CC[C@H](O)CC2)c2nc(Nc3ccccc3)ncc21`, the logD in data set [3] amounted to 2.4.

`COc1ccc(Nc2ncc3[nH]c(=O)n([C@H]4CC[C@H](O)CC4)c3n2)c(C)c1`: in data set [3], the logD is 2.3.

Turning to `COc1ccc(Nc2ncc3c(n2)n([C@H]2CC[C@H](O)CC2)c(=O)n3C)cc1`, the logD in data set [3] amounted to 2.3.

With `COc1ccc(C)c(Nc2ncc3c(n2)n([C@H]2CC[C@H](O)CC2)c(=O)n3C)c1`, the logD in [3] was 2.6.

Broadly, the pKa is the negative logarithm of the acid dissociation constant. For `Cc1cc2nccn2cc1Nc1ncc2c(n1)n(C1CCOCC1)c(=O)n2C`, in data set [4], the Papp A→B turned out to be 11 ×10⁻⁶ cm/s. Moreover, the pKa in data set [6] was found to be 7.1.

Turning to `COc1ccc(Nc2ncc3c(n2)n(C2CCCC2)c(=O)n3C)c(C)c1`, in data set [3], the logD was 3.7.

In the case of `Cc1cc2ncnn2cc1Nc1ncc2c(n1)n([C@H]1CC[C@@](C)(O)CC1)c(=O)n2C`, the Papp A→B in data set [4] came out at 24 ×10⁻⁶ cm/s. Further, the logD in [3] was determined as 1.9. Moreover, in data set [6], the pKa was found to be 3.6.

As to `Cc1c(Nc2ncc3c(n2)n([C@H]2CC[C@H](O)CC2)c(=O)n3C)ccc2nccn12`, in data set [3], the logD was determined as 1.2.

`Cn1c(=O)n([C@H]2CC[C@H](O)CC2)c2nc(Nc3ccc4nccn4c3)ncc21`: in data set [3], the logD stood at 1.8.

With `Cc1cc2nccn2cc1Nc1ncc2c(n1)n([C@H]1CC[C@H](O)CC1)c(=O)n2C`, in [4], the Papp A→B came out at 0.4 ×10⁻⁶ cm/s. This compound displayed a logD in [3] of 1.4.

Take `COc1ccc(Nc2ncc3c(n2)n([C@H]2CC[C@H](O)CC2)c(=O)n3C)c(C)c1`: the Drug metabolism result in data set [7], in [8], in [9], in data set [10] and in data set [11] was “Metabolite_Detected” each time. Also, in data set [5], the microsomal CLint is 49 µL/min/mg. This compound had a pH-dependent lipophilicity (logD) in [3] of 2.3.

For `Cc1cc2ncnn2cc1Nc1ncc2c(n1)n(C1CCCCC1)c(=O)n2C`, the Papp A→B in data set [4] came out at 24 ×10⁻⁶ cm/s. Further, the microsomal CLint in [5] stood at 93 µL/min/mg. In data set [3], this compound gave a logD of 3.1.

With `Cc1cc2ncnn2cc1Nc1ncc2c(n1)n([C@H]1CC[C@](C)(O)CC1)c(=O)n2C`, in data set [4], the Papp A→B was found to be 0.7 ×10⁻⁶ cm/s. Besides, in data set [3], the logD was 1.1.

In turn, `Cn1c(=O)n([C@H]2CC[C@H](O)CC2)c2nc(Nc3ccc4ncnn4c3)ncc21` came in with a logD in [3] of 1.7.

Broadly, the thermodynamic solubility is the concentration in solution at equilibrium with solid. On to `Cc1cc2ncnn2cc1Nc1ncc2c(n1)n(C1CCOCC1)c(=O)n2C` [AZD-7648], for which, in [4], the Papp A→B came to 22 ×10⁻⁶ cm/s. Besides, the Vd in data set [12] was determined as 1.4 L/kg; in [17] it was 0.7 L/kg. The bioavailability in data set [13] was determined as 93%; in data set [19] it was 104%. In data set [14], this compound came in with a Time of over 12 h. Further, in [15], the Cmax was 17 µM. Further, the thermodynamic solubility was 180 µM (≈ 68.5 µg/mL) in data set [16] and over 10000 µM in [20]. Moreover, the logD in data set [3] was determined as 1.3. Also, the “Cp(f)” value in [18] was over 1 µM. In [6], this compound displayed a pKa of 3.4.
